Holding throughout (assay type): cell-based
Assay [1] has as its system A2058 melanoma cell line. Briefly: Antiproliferative bioassay, A2058 melanoma cell line.
Assay [2] has as its system H522 lung cancer cell line. Description: Antiproliferative bioassay, H522 lung cancer cell line.
Assay [3] concerns A2780 human ovarian cancer cell line. Briefly: Antiproliferative bioassay, A2780 ovarian cancer cell line. To be noted: for IC50: read-out: IC50 (μM) A2780, A2780 ovarian cancer cells, mean of three replicates.
Where [4] appears, read: read-out: IC50 (μM) H522, H522 lung cancer cells.

Read-outs that look alike come from different tables or passages of the source.

For `CC[C@]1(O)C[C@@H]2CN(CCc3c([nH]c4ccccc34)[C@@](C(=O)OC)(c3cc4c(cc3OC)N(C)[C@H]3[C@@](O)(C(=O)OC)[C@H](OC(C)=O)[C@]5(CC)C=CCN6CC[C@]43[C@@H]65)C2)C1` [Vinblastine, reference compound], the IC50 came to 0.004 µM in assay [1] (Homo sapiens, A2058, read-out: IC50 (μM) A2058) and 0.009 µM in assay [2] (Homo sapiens, NCI-H522, read-out: IC50 (μM) H522).
Consider “oleanolic acid-3-O-β-D-glucopyranosyl-(1→3)-(2″-O-acetyl)-β-D-glucopyranoside [Compound 2]”, for which, in assay [3], the “inhibition of the proliferation of A2780 cells (in words)” value is recorded as “selectively inhibit the proliferation of A2780 ovarian cancer cells” and the 50% inhibitory concentration (IC50) was found to be 1.7 ± 0.1 µM. In addition, the IC50 in assay [2] (setting [4]) was greater than 10 µM.
With “oleanolic acid-3-O-β-D-glucopyranosyl- (1→3)-β-D-glucopyranoside [Compound 1]”, the 50% inhibitory concentration (IC50) in assay [3] was found to be 2.2 ± 0.2 µM; in assay [1] (read-out: IC50 (μM) A2058, A2058 melanoma cells) it was 7.63 µM; in assay [2] (setting [4]), 7.32 µM.
For the molecule `CC(=O)OC[C@H]1O[C@@H](O[C@H]2CC[C@]3(C)[C@H]4CC=C5[C@@H]6CC(C)(C)CC[C@]6(C(=O)O)CC[C@@]5(C)[C@]4(C)CC[C@H]3C2(C)C)[C@H](O)[C@@H](O[C@@H]2O[C@H](CO)[C@@H](O)[C@H](O)[C@H]2O)[C@@H]1O` [Compound 3, oleanolic acid-3-O-β-D-glucopyranosyl-(1→3)-(6″-O-acetyl)-β-D-glucopyranoside], in assay [3], the “inhibition of the proliferation of A2780 cells (in words)” value is given as “selectively inhibit the proliferation of A2780 ovarian cancer cells” and the IC50 amounted to 1.2 ± 0.3 µM. Further, the IC50 in assay [2] (setting [4]) is greater than 10 µM.

As a reminder, the IC50 is the midpoint of a concentration-inhibition curve.

The record behind these values is PMC3928794 (Chemistry & biodiversity, 2013).
